Assay results taken from US7691901B2, “Carotenoid analogs or derivatives for the inhibition and amelioration of inflammation” (Cardax Pharmaceuticals Inc., priority 2004, dated 2010).

Tested on: lipid peroxidation products
Assay: Thioglycollate/Zymosan-induced peritonitis model: lipid oxidation products in peritoneal lavage by electrospray ionization tandem mass spectrometry
Type: in vivo, mice
Settings: for 13-HODE MEAN / 13-HODE MEDIAN / Prostaglandin F2α (PGF2α) MEAN / Prostaglandin F2α (PGF2α) MEDIAN / 9-HETE/AA (ratio) MEAN / 9-HETE/AA (ratio) MEDIAN / 9-HODE MEAN / 9-HODE MEDIAN / 9-HETE MEAN / 9-HETE MEDIAN / Linoleic Acid MEAN / Linoleic Acid MEDIAN / Arachidonic Acid MEAN / Arachidonic Acid MEDIAN / PGF2a/AA (ratio) MEAN / PGF2a/AA (ratio) MEDIAN / 13-HODE/AA (ratio) MEAN / 13-HODE/AA (ratio) MEDIAN / 9-HODE/LA (ratio) MEAN / 9-HODE/LA (ratio) MEDIAN / 11-HETE MEAN / 11-HETE MEDIAN / 5-HETE MEAN / 5-HETE MEDIAN / 11-HETE/AA (ratio) MEAN / 11-HETE/AA (ratio) MEDIAN / 5-HETE/AA (ratio) MEAN / 5-HETE/AA (ratio) MEDIAN: 500 mg/kg oral gavage
Method: Thioglycollate/Zymosan—Induced Peritonitis Model: Wild-type mice were administered either 500 mg/kg body weight of disodium disuccinate astaxanthin (ddAst/Cardax™) in an oil emulsion vehicle, or normal saline (NS) as a negative control, by oral gavage at 24 hours intervals beginning 7 days prior to the induction of peritonitis. Peritonitis was induced experimentally as follows: mice were injected intraperitoneally with 1 ml of 4% by weight thioglycollate (Tg) broth, to induce the recruitment of proinflammatory cells to the peritoneum. Either 16 hours or 72 hours after recruitment, approximately half of the mice were injected intraperitoneally with 250 mg/kg body weight of zymosan (Z) for a further 4 hours. The mice not receiving zymosan underwent no further treatment. Peritoneal lavage was performed in control animals or animals treated with (ddAst) 16 hours post Tg injection, or 20 h following the combination of both Tg injection (16 hours) followed by Z injection (4 hours), as indicated (Tg/Z). Peritoneal lavages were performed with phosphate-buffered saline containing antioxidant (0.1 mM butylated hydroxytoluene (BHT)) and 2 mM of the metal chelator diethylenetriamine pentaacetic acid (DTPA) according to established practices in the art. The lavage suspensions were transferred to screw-capped tubes under an argon atmosphere, and immediately centrifuged at 1000 rpm in a table top microcentrifuge for 10 min at 4° C. to remove whole cells and debris. All analyses of lipid peroxidation products was performed on cell-free lavage supernatants. Cell pellets were resuspended in phosphate-buffered saline containing 0.1 mM BHT and 0.1 mM DTPA, and differential cell counts (macrophages, monocytes, eosinophils, lymphocytes, neutrophils, and erythrocytes) were performed on cytospun preparations of isolated cells according to established procedures in the art.
Electrospray ionization tandem mass spectrometry was used to simultaneously quantify individual molecular species of HETEs, HPETEs, the prostaglandin PGF2α, F2-isoprostanoids, hydroxy- and hydroperoxy-octadecadienoic acids (H(P)ODEs), and their precursors, arachidonic acid (AA) and linoleic acid (LA). Additionally, the molar ratios of o-tyrosine (oY/F). were measured.

[1] = 16 Hour Thioglycollate/4 Hour Zymosan, P-VALUE 0.165
[2] = 16 Hour Thioglycollate/4 Hour Zymosan, P-VALUE 0.250
[3] = 16 Hour Thioglycollate/4 Hour Zymosan, P-VALUE 0.272 NP
[4] = 16 Hour Thioglycollate/4 Hour Zymosan, P-VALUE 0.299
[5] = 16 Hour Thioglycollate/4 Hour Zymosan, P-VALUE 0.354
[6] = 16 Hour Thioglycollate/4 Hour Zymosan, P-VALUE 0.557
[7] = 16 Hour Thioglycollate/4 Hour Zymosan, P-VALUE 0.685 NP
[8] = 16 Hour Thioglycollate/4 Hour Zymosan, P-VALUE 0.772 NP
[9] = 16 Hour Thioglycollate/4 Hour Zymosan, P-VALUE 0.862 NP
[10] = 16 Hour Thioglycollate/4 Hour Zymosan, P-VALUE 0.900
[11] = 16 Hour Thioglycollate/4 Hour Zymosan, P-VALUE 0.954 NP
[12] = 16 Hour Thioglycollate/4 Hour Zymosan, P-VALUE 1.000 NP
[13] = 16 Hour Thioglycollate/4 Hour Zymosan
[14] = 16 Hour Thioglycollate, P-VALUE 0.018
[15] = 16 Hour Thioglycollate, P-VALUE 0.040
[16] = 16 Hour Thioglycollate, P-VALUE 0.096
[17] = 16 Hour Thioglycollate, P-VALUE 0.120
[18] = 16 Hour Thioglycollate, P-VALUE 0.172
[19] = 16 Hour Thioglycollate, P-VALUE 0.227 NP
[20] = 16 Hour Thioglycollate, P-VALUE 0.318 NP
[21] = 16 Hour Thioglycollate, P-VALUE 0.372 NP
[22] = 16 Hour Thioglycollate, P-VALUE 0.564 NP
[23] = 16 Hour Thioglycollate, P-VALUE 0.793 NP
[24] = 16 Hour Thioglycollate, P-VALUE 0.875 NP
[25] = 16 Hour Thioglycollate, P-VALUE 0.958 NP
[26] = 16 Hour Thioglycollate, P-VALUE 0.982
[27] = 16 Hour Thioglycollate, P-VALUE 0.986
[28] = 72 Hour Thioglycollate/4 Hour Zymosan, P-VALUE 0.001 NP
[29] = 72 Hour Thioglycollate/4 Hour Zymosan, P-VALUE 0.002 NP
[30] = 72 Hour Thioglycollate/4 Hour Zymosan, P-VALUE 0.006
[31] = 72 Hour Thioglycollate/4 Hour Zymosan, P-VALUE 0.008
[32] = 72 Hour Thioglycollate/4 Hour Zymosan, P-VALUE 0.010
[33] = 72 Hour Thioglycollate/4 Hour Zymosan, P-VALUE 0.018 NP
[34] = 72 Hour Thioglycollate/4 Hour Zymosan, P-VALUE 0.056 NP
[35] = 72 Hour Thioglycollate/4 Hour Zymosan, P-VALUE 0.118 NP
[36] = 72 Hour Thioglycollate/4 Hour Zymosan, P-VALUE 0.271
[37] = 72 Hour Thioglycollate/4 Hour Zymosan, P-VALUE 0.385 NP
[38] = 72 Hour Thioglycollate/4 Hour Zymosan, P-VALUE 0.629

CC1=C(/C=C/C(C)=C/C=C/C(C)=C/C=C/C=C(C)/C=C/C=C(C)/C=C/C2=C(C)C(=O)C(OC(=O)CCC(=O)O)CC2(C)C)C(C)(C)CC(OC(=O)CCC(=O)O)C1=O (stereo not drawn) [Cardax, disodium disuccinate astaxanthin]
13-HODE MEAN [1]: 5.689 pmol
13-HODE MEDIAN [1]: 4.768 pmol
Prostaglandin F2α (PGF2α) MEAN [2]: 0.038 pmol
Prostaglandin F2α (PGF2α) MEDIAN [2]: 0.035 pmol
9-HETE/AA (ratio) MEAN [3]: 0.529
9-HETE/AA (ratio) MEDIAN [3]: 0.472
9-HODE MEAN [4]: 2.767 pmol
9-HODE MEDIAN [4]: 2.825 pmol
9-HETE MEAN [5]: 0.559 pmol
9-HETE MEDIAN [5]: 0.612 pmol
Linoleic Acid MEAN [6]: 13158 pmol
Linoleic Acid MEDIAN [6]: 10509 pmol
Arachidonic Acid MEAN [7]: 1208.5 pmol
Arachidonic Acid MEDIAN [7]: 1039.6 pmol
PGF2a/AA (ratio) MEAN [7]: 0.038
PGF2a/AA (ratio) MEDIAN [7]: 0.025
13-HODE/AA (ratio) MEAN [8]: 0.456
13-HODE/AA (ratio) MEDIAN [8]: 0.376
9-HODE/LA (ratio) MEAN [9]: 0.245
9-HODE/LA (ratio) MEDIAN [9]: 0.201
11-HETE MEAN [9]: 0.654 pmol
11-HETE MEDIAN [9]: 0.450 pmol
5-HETE MEAN [10]: 1.082 pmol
5-HETE MEDIAN [10]: 0.953 pmol
11-HETE/AA (ratio) MEAN [11]: 0.669
11-HETE/AA (ratio) MEDIAN [11]: 0.453
5-HETE/AA (ratio) MEAN [12]: 0.997
5-HETE/AA (ratio) MEDIAN [12]: 0.770
5-oxo-ETE (pmol), MEAN [13]: 0.085 pmol
5-oxo-ETE (ratio), MEAN [13]: 0.080 ratio
8-iso-F2a (pmol), MEAN [13]: 0.012 pmol
8-iso-F2a/AA (ratio), MEAN [13]: 0.011 ratio
5-oxo-ETE (pmol), MEDIAN [13]: 0.083 pmol
5-oxo-ETE (ratio), MEDIAN [13]: 0.081 ratio
8-iso-F2a (pmol), MEDIAN [13]: 0.000 pmol
8-iso-F2a/AA (ratio), MEDIAN [13]: 0.000 ratio
Arachidonic Acid MEAN [14]: 1791.6 pmol
Arachidonic Acid MEDIAN [14]: 1854.3 pmol
Linoleic Acid MEAN [15]: 22739 pmol
Linoleic Acid MEDIAN [15]: 22907 pmol
13-HODE/AA (ratio) MEAN [16]: 0.905
13-HODE/AA (ratio) MEDIAN [16]: 0.920
9-HODE MEAN [17]: 5.367 pmol
9-HODE MEDIAN [17]: 3.831 pmol
Prostaglandin F2α (PGF2α) MEAN [18]: 0.037 pmol
Prostaglandin F2α (PGF2α) MEDIAN [18]: 0.033 pmol
9-HETE/AA (ratio) MEAN [19]: 0.476
9-HETE/AA (ratio) MEDIAN [19]: 0.448
5-HETE MEAN [20]: 0.334 pmol
5-HETE MEDIAN [20]: 0.255 pmol
11-HETE MEAN [21]: 0.434 pmol
11-HETE MEDIAN [21]: 0.329 pmol
9-HODE/LA (ratio) MEAN [22]: 0.292
9-HODE/LA (ratio) MEDIAN [22]: 0.255
11-HETE/AA (ratio) MEAN [23]: 0.239
11-HETE/AA (ratio) MEDIAN [23]: 0.195
5-HETE/AA (ratio) MEAN [24]: 0.218
5-HETE/AA (ratio) MEDIAN [24]: 0.151
9-HETE MEAN [25]: 0.826 pmol
9-HETE MEDIAN [25]: 0.718 pmol
13-HODE MEAN [26]: 18.838 pmol
13-HODE MEDIAN [26]: 15.191 pmol
PGF2a/AA (ratio) MEAN [27]: 0.034
PGF2a/AA (ratio) MEDIAN [27]: 0.018
5-oxo-ETE (pmol), MEAN (16 Hour Thioglycollate): 0.128 pmol
5-oxo-ETE (ratio), MEAN (16 Hour Thioglycollate): 0.056 ratio
8-iso-F2a (pmol), MEAN (16 Hour Thioglycollate): 0.052 pmol
8-iso-F2a/AA (ratio), MEAN (16 Hour Thioglycollate): 0.044 ratio
5-oxo-ETE (pmol), MEDIAN (16 Hour Thioglycollate): 0.078 pmol
5-oxo-ETE (ratio), MEDIAN (16 Hour Thioglycollate): 0.067 ratio
8-iso-F2a (pmol), MEDIAN (16 Hour Thioglycollate): 0.069 pmol
8-iso-F2a/AA (ratio), MEDIAN (16 Hour Thioglycollate): 0.034 ratio
Arachidonic Acid MEAN [28]: 3554.3 pmol
Arachidonic Acid MEDIAN [28]: 2429.5 pmol
5-HETE/AA (ratio) MEAN [29]: 0.369
5-HETE/AA (ratio) MEDIAN [29]: 0.333
9-HODE/LA (ratio) MEAN [30]: 0.132
9-HODE/LA (ratio) MEDIAN [30]: 0.134
11-HETE/AA (ratio) MEAN [31]: 0.253
11-HETE/AA (ratio) MEDIAN [31]: 0.237
PGF2a/AA (ratio) MEAN [32]: 0.011
PGF2a/AA (ratio) MEDIAN [32]: 0.012
Linoleic Acid MEAN [33]: 33183 pmol
Linoleic Acid MEDIAN [33]: 27585 pmol
9-HETE/AA (ratio) MEAN [34]: 0.253
9-HETE/AA (ratio) MEDIAN [34]: 0.244
9-HETE MEAN [35]: 0.917 pmol
9-HETE MEDIAN [35]: 0.687 pmol
13-HODE/AA (ratio) MEAN [35]: 0.229
13-HODE/AA (ratio) MEDIAN [35]: 0.186
13-HODE MEAN [36]: 7.181 pmol
13-HODE MEDIAN [36]: 6.732 pmol
5-HETE MEAN [37]: 1.236 pmol
5-HETE MEDIAN [37]: 0.997 pmol
Prostaglandin F2α (PGF2α) MEAN [38]: 0.040 pmol
Prostaglandin F2α (PGF2α) MEDIAN [38]: 0.039 pmol
